Source: ChEMBL document CHEMBL3507680, “University of Dundee, Gates Library screen for HepG2 cell viability”

Assay: Human HepG2 cell viability assay in 384 well format
Assay type: toxicity, cell-based
Set-up: dose 125 nL, time 70.5 hour; cytotoxicity at 70.5 h: concentration not given beside the values
Conditions: HepG2 cells, read-out: Inhibition

Row | Structure (SMILES) | cytotoxicity at 70.5 h [%]
1 | CS(=O)(=O)CCN1CCSCC1c1ccc(Cl)cc1 (centres undefined) | -1.17
2 | COc1cccc(CN2CCOC(c3cnccn3)C2)c1F (centres undefined) | -8.48
3 | Oc1cc(CCC2CCCCN2)cc(-c2ccncc2)c1 (centres undefined) | 17.4
4 | Cc1ccc(CN(C(=O)NCC(c2cccs2)N(C)C)C2CC2)o1 (centres undefined) | -5.44
5 | Cc1cc(CNC(=O)N2CCN(C(C)c3cccnc3)CC2)c(C)o1 (centres undefined) | -0.922
6 | O=c1[nH]c2nc(NCC3CCCO3)ncc2c(=O)n1-c1ccc(F)cc1 (centres undefined) | 1.97
7 | CC1CN(CC(=O)NCc2ccccn2)CCN1Cc1nccn1C (centres undefined) | -3.22
8 | CCN(CC)Cc1nc2c(o1)CN(C(=O)c1ccc3[nH]ccc3c1)C2 | -17
9 | CC(C)Cn1cc(NC(=O)N2CCOC(c3ccccc3)C2)cn1 (centres undefined) | -4.35
10 | Cc1ccc(C(CNCc2cnn(C(C)C)c2)N2CCOCC2)s1 (centres undefined) | -0.62
11 | CNC(=O)c1cccc(NC(=O)NC(C)CCc2cccn2C)c1C (centres undefined) | 5.28
12 | CC(O)CN1CCC(CN(C)Cc2cc(C#N)ccc2F)CC1 (centres undefined) | -7.5
13 | CC(C)N1[C@H](Cn2cncn2)C[C@@H]2CN(Cc3cccs3)CC[C@@H]21 | -0.112
14 | CC(C)(C)c1nnc2n1C(C(=O)N1CCCC1)CC2 (centres undefined) | -12.7
15 | Cc1cccc(OCCC(=O)N2CCN(S(=O)(=O)N(C)C)CC2)c1C | 20.1
16 | CCn1cnnc1CNC(=O)N1CCCN(C(C)=O)CC1 | -11.8
17 | CC(=O)N1CCOCC(Cc2ccc3c(ccn3C(C)=O)c2)C1 (centres undefined) | -2.4
18 | Cc1oc(C(C)C)cc1C(=O)N1C[C@H]2CC[C@@H]1CN(S(=O)(=O)N(C)C)C2 | -7.52
19 | CC(C)(C)OC(=O)N1CCC(C(=O)NCc2cc3ccccc3[nH]2)C1 (centres undefined) | -2.83
20 | CN1CCC(N2C[C@H](O)C[C@H]2c2nc(Cc3ccccc3)no2)CC1 | -7.37
21 | CN(C)CCN(Cc1ccc(Cl)cc1)C(=O)c1cnccn1 | 3.24
22 | CCc1nnc(SC2CCN(c3ccccc3F)C2=O)n1C (centres undefined) | -2.9

Row | Structure (SMILES) | cytotoxicity at 70.5 h [%]
23 | CC(C)CC(=O)Nc1cccc(CNCc2cccs2)c1 | -3.67
24 | Cc1noc(C)c1S(=O)(=O)N1CCC(Oc2ccccn2)CC1 | 10
25 | O=C1NCCCC12CCN(Cc1ccc(-c3ccccc3)s1)C2 (centres undefined) | 7.11
26 | CCc1n[nH]c(C2CN(Cc3nc(C4CC4)no3)CCO2)n1 (centres undefined) | -3.3
27 | Cc1cc(NC(=O)NC(C)(C)c2nc(C)c(C)s2)no1 | -8.02
28 | COc1c(CNCc2ccnc(N(C)C)c2)c(C(C)C)nn1C | 0.688
29 | O=C(c1ccc[nH]1)N1CCN(CC2CCOc3ccccc3C2)CC1 (centres undefined) | 16.4
30 | COc1cc(N2CCCC3(CCN(c4cncnc4)C3=O)C2)ncn1 (centres undefined) | -7.92
31 | CCOC1CCN(C(=O)c2ccc(-n3ncc(C#N)c3N)cc2)CC1 | -0.409
32 | COc1cc(N2CCc3ncnc(-c4cnn(C)c4)c3CC2)ncn1 | -12
33 | Cc1cc(C)c(CNC(=O)NCc2ccc3c(c2)OCCO3)c(=O)[nH]1 | 0.304
34 | COCC(=O)N1C[C@@H](C)[C@](O)(C(C)C)C1 | -3.63
35 | Fc1ccc(C2(CNCCc3cccs3)CCOC2)cc1 (centres undefined) | -6.84
36 | O=C1CCc2cc(S(=O)(=O)NCc3cc4n(n3)CCNC4)ccc2N1 | -16.4
37 | Cn1cc(CN2CCn3cc(CNC(=O)C4CCC4)nc3C2)cn1 | 2.26
38 | Cc1cccc(OCCSCCn2nc3ccccn3c2=O)c1 | -11
39 | CCc1n[nH]c(C2CN(CC(=O)NCCc3ccsc3)CCO2)n1 (centres undefined) | -3.93
40 | COCCN(Cc1cnn(C)c1)c1nc(C)nc2sccc12 | 4.75
41 | CCN(CC)[C@@H]1CN(C(=O)c2ccnnc2)[C@@H]2CCCO[C@H]12 | -8.7
42 | CN(C)C(=O)COCC1CN(S(C)(=O)=O)Cc2ncn(C)c21 (centres undefined) | -6.55
43 | CCN1CC2(CC1=O)CN(Cc1ccco1)CCN(C(=O)C(C)C)C2 (centres undefined) | 7.56
44 | CN(CC(O)C(F)(F)F)C(=O)Nc1cccc(Cn2cccn2)c1 (centres undefined) | -6.9
